Assay results: ChEMBL document CHEMBL3507680, “University of Dundee, Gates Library screen for HepG2 cell viability”

Assay: Human HepG2 cell viability assay in 384 well format
Format: toxicity, cell-based
Design: dose 125 nL, time 70.5 hour; concentration not given beside the values
Conditions: HepG2 cells, read-out: Inhibition

Compound	cytotoxicity at 70.5 h
Cn1cc(CN2C[C@@H]3COC[C@H](C(=O)Nc4cccnc4)[C@@H]3C2)cn1	44.2%
COCCN(C)CCN1CC2(CCN(C3CCCNC3)CC2)OC1=O (stereo unspecified)	-4.32%
c1cncc(CN2CCN3C[C@H](Oc4cncnc4)C[C@H]3C2)c1	-5.49%
CC(C)(CC(=O)Nc1cccc(Oc2ccccn2)c1)C(=O)O	-5.32%
Cn1cnc(C(=O)N2CC3(CCN(S(=O)(=O)c4ccccc4)C3)C2)c1	-7.62%
CN(CCCc1cnn(C)c1)C(=O)Nc1cccc2[nH]nnc12	-7.81%
CN(Cc1ccccc1)C1(C(=O)O)Cc2ccccc2C1	-1.88%
CN(C)C(C(=O)NC1(CO)CCCC1)c1ccc(F)cc1 (stereo unspecified)	6.65%
COCc1nc(CN2CC(=O)N(C)c3ccccc3C2=O)no1	-5.63%
c1cnnc(N2CCCC2CNCc2nc3ccccc3o2)c1 (stereo unspecified)	-9.74%
CN(Cc1ccccc1)CC(O)Cn1cnc2ccsc2c1=O (stereo unspecified)	-8.61%
CCN1C(=O)[C@H]2CN(CC(C)C)C[C@H]2C12CCN(C(=O)NC(C)C)CC2	-1.18%
Cc1ncc(-c2ccccn2)c(CCNC(=O)C2CCCC2)n1	14.1%
CC(C)c1cccc(CSc2nnc(Cn3cncn3)o2)n1	-7.35%
CCOc1cccc(CNC(=O)CN2CCC3(CCOC3)C2)c1 (stereo unspecified)	-6.18%
CCC(NCc1cc[nH]n1)c1nc(C(F)(F)F)cs1 (stereo unspecified)	-4.23%
CCS(=O)(=O)N1CCC(CSc2ccccc2)C1 (stereo unspecified)	-11.1%
Cc1nc(C(=O)N2CCc3c(nc(-c4ccncc4)[nH]c3=O)C2)cs1	-8.1%
COc1ccccc1C(=O)N1CCCC1c1ncc2c(n1)CCNC2 (stereo unspecified)	-2.07%
COc1cc2c(cc1OC)CN(Cc1ncccc1C(=O)O)CC2	-13.5%
FC1(F)CCN(Cc2ccccn2)CC12CCN(c1cccnc1)C2 (stereo unspecified)	21.6%
CCc1nnc(CN2CCCC2Cn2cc(C)cn2)o1 (stereo unspecified)	17.8%
CS(=O)(=O)NCC1CCN(C(=O)Oc2ccccc2)CC1	-3.79%

Compound	cytotoxicity at 70.5 h
CNC(=O)C1CCC2(CCNCC2)C1 (stereo unspecified)	-3.71%
Cc1cccc(-c2noc([C@@H]3C[C@@H](O)CN3C)n2)c1	3.3%
CNC(=O)C(C)CN(C)C(=O)Nc1ccc(Cl)cc1-n1cccc1 (stereo unspecified)	4.05%
O=C(N[C@@H]1CCC[C@@H](N2CCOCC2)[C@@H]1O)c1ncccn1	6.75%
O=C(CCn1nc(C(F)(F)F)c(Br)c1C1CC1)NN1CCOCC1	-4.82%
Cc1nn(-c2ncccn2)c2c1C(c1cnn(C)c1)SCC(=O)N2 (stereo unspecified)	-24.2%
CCc1nc(CC)n(CC(=O)N(C)CC(F)(F)F)n1	-4.55%
CC(=O)NCc1nnc2n1CCN(Cc1cccs1)C2	-11.7%
CCc1cnc(CNc2ccc(C(=O)N3CCCC(C)C3)cc2C)o1 (stereo unspecified)	-10.4%
CS(=O)(=O)NCc1cn2c(n1)CN(Cc1ccoc1)CC2	3.17%
CN(Cc1cccc(OC(F)F)c1)Cc1nc2c(cnn2C)c(=O)[nH]1	2.1%
Cc1nc(CN2CCCC(NCc3ccc4ccccc4c3)C2)no1 (stereo unspecified)	-6.48%
Cc1cc(C2CCCN(C(=O)c3cccnc3)C2)ccn1 (stereo unspecified)	-11.1%
CC(NC(=O)CSCC#N)c1ccc(F)cc1 (stereo unspecified)	10.1%
COCCc1nc(CSc2ccncc2)n(C)n1	1.99%
Cc1csc(N2CCN(C(=O)CCC(=O)c3ccc(C)s3)CC2)n1	7.78%
CCC(=O)N1CCN(C(=O)Nc2cccc(C#N)c2)[C@H]2CS(=O)(=O)C[C@H]21	-15.6%
Cc1nc(NCC2CC2)nc2c1COCC21CCN(CC(=O)N(C)C)C1 (stereo unspecified)	-14.8%
CC(Cn1cccn1)NCCCc1nc(-c2cccs2)no1 (stereo unspecified)	1.95%
Cc1cc(S(=O)(=O)N2CC[C@@H](O)C2)c(Cl)cc1F	-6.21%
Cc1cc(=O)[nH]c(-n2nc(-c3cccs3)cc2N)n1	13.9%
CNS(=O)(=O)c1ccc(CNC(=O)c2ccccn2)cc1	-9.5%
Cc1c(Cl)cccc1S(=O)(=O)N1C[C@@H]2CC[C@H](C1)N(C)C2=O	1.2%

Compound	cytotoxicity at 70.5 h
Cc1ccc(-c2c(-c3ccccc3)ncn2CCCN2CCOCC2)o1	-11.8%
O=C(CCn1ccc2ccc(F)cc21)/N=c1\[nH]nc(C2CCCO2)s1 (stereo unspecified)	-20.2%
CC(C)c1nc(CNCC2CCCN2c2cccnn2)cs1 (stereo unspecified)	-8.04%
O=C(CSC1CCc2ccccc2NC1=O)NCc1ccccc1 (stereo unspecified)	6.38%
CCc1ncc(-c2nccn2-c2cccc(CC(=O)O)c2)cn1	-11.5%
CNC(=O)CN(C)C(=O)Cc1csc(C(C)C)n1	0.629%
O=C(c1cccnc1)N1CCOC(Cc2ccccc2Cl)C1 (stereo unspecified)	0.0235%
N#Cc1ccc(CN2CCCCC2Cn2cccn2)cc1 (stereo unspecified)	16%
O=C(c1ccnnc1)N1CC2(CCN(c3ncccn3)C2)C1	-5.07%
COCCNC(=O)NCCn1nc(C(F)(F)F)n(C)c1=O	-4.7%
CO[C@H]1CCN(c2nnc(C)s2)C[C@@H]1Cc1cccc(C)c1	7.81%
O=C(Cc1ccsc1)N1C[C@@H]2OCCN(CC3CC3)[C@@H]2C1	1.39%
CC(=O)N1CCC(c2ncc3c(n2)CCN(C(=O)c2ccccc2)C3)C1 (stereo unspecified)	-2.46%
CC(C)N(C)Cc1cn2c(n1)CN(C(=O)Cc1ccccc1)CC2	-2.24%
O=C1OCCN1Cc1cccc(C(F)(F)F)c1F	-10.3%
CC(=O)N1CCC(C(=O)N(C)[C@@H]2CCC[C@@H](N3CCCC3)[C@@H]2O)CC1	41.3%
CN(Cc1ccon1)CC1CCOc2ccccc2C1 (stereo unspecified)	-8.84%
O=C(c1cc(=O)[nH]c(=O)[nH]1)N1CCCC(CO)(CC2CC2)C1 (stereo unspecified)	-10.5%
COCCO[C@@H]1C[C@H]2CN(C(=O)c3ccc(C)nc3)CCN2C1	-9.86%
CN(C)CCOc1ccc(CNC(=O)c2cccc3[nH]ncc23)cc1	9.57%
CNC(=O)NCc1nn(-c2ccccc2)c2c1CCC2	-4.98%
CN(C)C(=O)COCC1CN(Cc2ccoc2)Cc2ncn(C)c21 (stereo unspecified)	-3.96%
COCCNC(=O)c1sccc1N(C)S(=O)(=O)c1ccc(Cl)cc1	-22.2%

Compound	cytotoxicity at 70.5 h
CN(C)S(=O)(=O)N1C[C@H]2CCC[C@@]2(COCc2ccccn2)C1	13.2%
O=C(C1CCOCC1)N1CCOCC(Cc2ncccn2)C1 (stereo unspecified)	-10.5%
N[C@@H]1CCN(Cc2cccc(N3CCOCC3)c2)C[C@H]1O	26.8%
CCN1C[C@@H]2[C@@H](OC)CCN(S(=O)(=O)c3ccccc3F)[C@@H]2C1	-9.34%
CN1C(=O)COc2ccc(C(=O)Cn3cnc4ccccc4c3=O)cc21	-12%
CNC(=O)c1cc(NC(=O)NC2CC2)ccc1F	-8.55%
COc1ccc(CN2CCN(CC3CC3)[C@@H]3CS(=O)(=O)C[C@@H]32)cc1C	10.6%
CC(C)C(=O)N1CCC(NCc2c(C(C)C)nn(C)c2N(C)C)CC1	-5.89%
CCN(CC)S(=O)(=O)N1CCCC(c2nccn2Cc2ccncc2)C1 (stereo unspecified)	8.67%
O=C(CCOc1ccccc1F)N1CCCCC1Cn1cccn1 (stereo unspecified)	-4.38%
Cc1ncc2c(n1)CN(CC(=O)Nc1cc(C)on1)CC2	-5.61%
Fc1ccccc1CO[C@@H]1C[C@H]2CN(c3ncccn3)CCN2C1	4.66%
O=C(O)[C@@H]1OCC(=O)N(Cc2cccc(Cl)c2)[C@@H]1c1ccccc1	5.58%
CC(C)CCN1C[C@H]2C[C@H](C(=O)N3CCCC3)[C@@H](C1)O2	-5.2%
Cc1cc(C(=O)N2CCC3(CC2)C(=O)N(C)CCN3CC2CC2)c(C)o1	-2.24%
O=C([C@H]1CCCO1)N1CCOC2(CCCN(c3ncccc3F)C2)C1 (stereo partly specified)	-15.7%
Cc1cnn(CC2CN(CC(=O)N(C)Cc3cnn(C)c3)CCO2)c1 (stereo unspecified)	-7.34%
Cc1nc2c(c(=O)n1C)CN(C(=O)C1CCCN(CC(N)=O)C1)C2 (stereo unspecified)	8.71%
COCC(O)CNC(=O)Nc1c(F)cc(F)cc1-c1ccccc1 (stereo unspecified)	-11.2%
CC(C)NC(=O)C(C(C)C)n1cnc2cc(F)c(F)cc21 (stereo unspecified)	-7.62%
Cc1cc(CN(C)C(=O)NC2CCS(=O)(=O)C2)no1 (stereo unspecified)	-15.8%
Cc1cnn(CC2CCCN2c2ccc(C#N)cn2)c1 (stereo unspecified)	6.54%
N#Cc1cccc(N2CCOCC3(CCCN(C(=O)NC4CC4)C3)C2)c1 (stereo unspecified)	-6.43%

Compound	cytotoxicity at 70.5 h
Cc1cc(C)c(C(=O)N(C)CCN(C)C(=O)OC(C)(C)C)[nH]1	6.57%
Cc1cc(C)c(C#N)c(N2CCC(Cc3ccccc3)CC2)n1	-2.18%
CCn1c(C)nnc1CN(C)C1CCN(CCc2ccncc2)C1 (stereo unspecified)	-3.16%
O=C(c1cccs1)N1CCCn2c(nc(CN3CCCC3)cc2=O)C1	-0.229%
Cn1cc(CN2C[C@H]3CCC[C@@]3(COCC3CC3)C2)cn1	-1.1%
OCc1nnn2c1CN(Cc1cccnc1)CCC2	-115%
CC(C)CCNC(=O)c1cccnc1Oc1cccnc1	-6.47%
CN(CC(=O)N(CCC#N)c1ccccc1)C1CCc2ccccc21 (stereo unspecified)	5.13%
CCN(CC1COc2ccccc2O1)C(=O)NCCCn1cncn1 (stereo unspecified)	-10.8%
C/C=C(\C)CN1C[C@H](c2cccc(OC)c2)[C@@H](N)C1	-5.71%
NC(=O)NC(=O)CCSCc1coc(-c2cccc(Cl)c2)n1	-17.3%
Cc1cn[nH]c1C1COCCN1C(=O)c1cc(F)ccc1F (stereo unspecified)	5.9%
Cn1ncc(NCc2cccc(OCC(F)(F)F)c2)c(Cl)c1=O	18.3%
C[C@H]1CN(C(=O)N(C)C)C[C@@]12CCN(c1ccsc1)C2=O	-8.12%
Cn1ccnc1CN1CCC(c2nnc(Cn3cccn3)n2C)CC1	24.7%
O=C1NC2(CCN(Cc3cccnc3)CC2)CC1c1cccnc1 (stereo unspecified)	-8.55%
CN(C)c1nc(N)nc(CN2CCCC2c2ccsc2)n1 (stereo unspecified)	-7.29%
O=C1CC[C@@H](C(=O)N2CCc3[nH]nc(COc4cccc(Cl)c4)c3C2)N1	-8.37%
Cc1n[nH]c(C)c1NC(=O)c1cccc(OCC(F)(F)F)n1	-10.8%
